# In patent EP4752142A1, “5-HT2A RECEPTOR AGONIST, AND PREPARATION METHOD THEREFOR AND USE THEREOF” (Innovstone Therapeutics Limited, priority 2023, dated 2025):
# Read-outs that look alike come from different tables or passages of the source.
# Experiments:
# 5-HT2A receptor [1] = molecular target: T1, 5-HT2A receptor (Homo sapiens, UniProt P28223); assay: 5-HT2A receptor isotope competition affinity assay; assay type: binding
# Description: A radiolabeled ligand (agonist or antagonist) incubated with receptor protein could form a receptor-ligand complex. An added test compound could compete with the isotopically labeled ligand for the receptor binding, eventually forming a relative steady-state equilibrium. The affinity of the test compound for the receptor was indirectly evaluated by measuring the dissociation of the isotopically labeled ligand from the receptor.
# A 100x serial gradient dilution of compounds was prepared in DMSO, starting from 1 mM with 4-fold serial dilutions, resulting in 10 concentration points. Using a pipettor, 1 µL of each gradient concentration of the test compound (final concentration starting at 10 µM, 4-fold serial dilutions, 10 concentration points) was transferred to a 96-well assay plate, to each well of which 49 µL of 5-HT2A receptor protein (102 µg/mL, prepared in an assay buffer: 50 mM Tris-HCl, pH 7.4) had been added in advance (final concentration 5 µg/well). This was followed by the addition of 50 µL of isotopically labeled [^3H]-Ketanserin (2 nM, 2× final concentration, prepared in the assay buffer). The plate was sealed and incubated on a shaker at room temperature for 1 hour. The reaction mixture was filtered through a Unifilter-96 GF/C filter plate pre-treated with 0.3% PEI. The filter plate was washed with a precooled (4°C) assay buffer and then dried in an incubator at 50°C. A scintillation liquid was added, and the plate was read using a MicroBeta2 instrument. The percentage inhibition was calculated using the equation: %Inhibition=(CountHigh Signal Control-CountSample)/(CountHigh Signal Control-CountLow Signal Control)*100. A four-parameter logistic fit was used to calculate the IC50 value. High Signal Control: No compound group (the same volume of DMSO substituted). Low Signal Control: Ketanserin group (non-isotopically labeled, 2× final concentration). Table 1: Results of 5-HT2A receptor isotope competition affinity assay, Ki Values
# 5-HT2A receptor [2] = molecular target: T1, 5-HT2A receptor; assay: 5-HT2AR calcium flux activation assay; assay type: cell-based; parameters: expressed in transfected cells; host or cells: HEK293; details: for Emax: Max Dose 100000 nM
# Description: • 1) For cultured cells (HEK293 cells stably expressing human 5-HT2A receptor), they were first washed twice with pre-warmed DPBS, then an appropriate amount of trypsin was added for digestion at 37°C for 1 minute; an appropriate amount of the culture medium was then added to stop digestion, and 1 mL was taken for counting and vitality determination using Vi-CELL™. • 2) Cells were centrifuged at 1000 rpm for 5 minutes. • 3) The supernatant was gently discarded, being careful not to disturb the cell pellet. • 4) Cells were diluted with the culture medium to 1×10^6 cells/mL (20,000 cells/20 µL) and seeded into 384-well poly-lysine coated cell plates. They were cultured at 37°C under 5% CO2 for 16-20 hours.
# • 1) Preparation of 250 mM Probenecid solution: According to the kit instructions, 77 mg of probenecid was added to 1 mL of FLIPR buffer salt solution. Prepared fresh for immediate use. • 2) Preparation of Fluo-4 Direct™ (2×, 8 µM) loading buffer: According to the kit instructions, the required amount of Fluo-4 Direct™ was thawed in advance. 10 mL of FLIPR buffer salt solution and 0.2 mL of 250 mM Probenecid solution were added to each vial. It was vortexed in the dark for >5 minutes. Prepared fresh for immediate use.
# • 1) Preparation of control and test compound plates: Compounds were gradient diluted to 10 points using Echo, and 750 nL was transferred to the corresponding compound plate. • 2) 30 µL of assay buffer salt solution was added to the corresponding compound plate, which was then centrifuged at 1000 rpm for 1 minute; • 3) The cell plate prepared the day before was taken from the incubator, and 20 µL of 2× Fluo-4 Direct™ buffer was added to each well, making a total volume of 40 µL. • 4) The plate was incubated in a 5% CO2, 37°C incubator for 50 minutes, then left at room temperature for 10 minutes. • 5) The compound plate, the cell plate, and pipette tips were placed into the instrument; • 6) The FLIPR instrument software was run according to the set program, adding 10 µL of the specified concentrations of test compounds and control compounds to the cell plate, and fluorescence signals were read. After reading, data was exported using the "Max-Min", "Read 1 to 90" method in the software. • 7) Data analysis: Agonist Activation% = (RLU−DMSO)/(HC−DMSO)*100 [formula] • RLU: Relative Light Units, read values 1 to 90; • HC: Average fluorescence signal of the highest concentration point of the agonist; • DMSO: Average fluorescence signal of the DMSO group; • 8) Data was fitted using Prism 5.0.
# For agonist: EC50 was fitted using "log(agonist) vs. response -- Variable slope". Table 2: 5-HT2AR Calcium Flux Activation Assay
# Mice (strain C57BL/6) [3] = assay: Head-twitch response test in mice; assay type: in vivo; details: reflects hallucinogenic effect, Figure 1
# Description: (§1) • 1. Assay conditions and materials: • 1.1 Animal source: Mice (strain C57BL/6, purchased from Shanghai Lingchang Biotechnology Co., Ltd., 8-9 weeks old, 20-24 grams, male) • 1.2 Conditions: Temperature (20-25°C), relative humidity (40-70%), light cycle (12-hour light cycle (7:00-19:00)), free access to food and water • 1.3 Marking: Animals were marked on the tail. • 2. Assay procedure:
# • A) Adaptation: Starting from the second day after the animals arrived, they were conciliated by stroking and acclimated for seven consecutive days to reduce their stress response. • B) Grouping: One hour before the assay test, animals were placed in the testing room for adaptation. On the test day, animals were randomly grouped according to body weight. Each group contained 12 animals. • C) Assay Dosing: Animal body weight was measured, and compounds were administered according to the group, with a dosing volume of 10 mL/kg for all. • D) Testing: After dosing, animals were placed in transparent observation chambers, and head-twitch behaviors were recorded over 60 minutes. • E) Assay test indicator: Total number of head-twitches within 60 minutes after dosing.
# Mice (strain C57BL/6) [4] = assay: Forced swim test in naive mice 7 days after single administration; assay type: in vivo; details: compared to vehicle control group, p<0.05, Figure 2
# Description: as §1
# • A) Adaptation: Starting from the second day after the animals arrived, they were conciliated by stroking and acclimated for seven consecutive days to reduce their stress response. • B) Behavioral test (FST test): Compound and Psilocybin groups (15 animals per group) continued to be housed for 7 days after dosing. On day 7, the Ketamine group (15 animals per group) was dosed 30 minutes before being placed, together with the compound and Psilocybin groups, into forced swim observation chambers for 6 minutes. Immobility time during the last 4 minutes was calculated. • C) Assay test indicator: Immobility time of animals during 2-6 minutes of the forced swim test.
# [5] = competition with [3H]-Ketanserin, 1 hour, room temperature, read-out: 5-HT2A receptor/Ki
# [6] = HEK293 cells stably expressing human 5-HT2A receptor, FLIPR, Fluo-4, read-out: EC50
# [7] = HEK293 cells stably expressing human 5-HT2A receptor
# T1 sequence (P28223 whole entry): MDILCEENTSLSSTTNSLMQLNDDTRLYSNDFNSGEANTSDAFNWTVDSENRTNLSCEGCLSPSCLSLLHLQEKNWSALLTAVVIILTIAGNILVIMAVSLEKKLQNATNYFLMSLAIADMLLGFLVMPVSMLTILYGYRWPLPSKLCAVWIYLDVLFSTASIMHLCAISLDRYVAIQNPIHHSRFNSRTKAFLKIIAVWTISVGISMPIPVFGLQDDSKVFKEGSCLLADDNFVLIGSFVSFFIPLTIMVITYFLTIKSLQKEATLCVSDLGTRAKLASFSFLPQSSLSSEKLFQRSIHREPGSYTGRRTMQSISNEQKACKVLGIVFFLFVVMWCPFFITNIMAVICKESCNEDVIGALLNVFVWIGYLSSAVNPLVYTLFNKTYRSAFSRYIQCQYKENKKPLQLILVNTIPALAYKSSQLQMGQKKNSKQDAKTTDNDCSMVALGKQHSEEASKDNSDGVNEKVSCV
compound,measurement,setting,value
"Cc1nonc1CCCN1CCC(c2c[nH]c3ccccc23)C1 (centres unmarked) [Compound 54, 3-(1-(3-(4-methyl-1,2,5-oxadiazol-3-yl)propyl)pyrrolidin-3-yl)-1H-indole]",Ki,5-HT2A receptor [1]; [5],< 100 nM
same,EC50,5-HT2A receptor [2]; [6],86.5 nM
same,Emax,5-HT2A receptor [2]; [7],46.7%
"Cc1cnn(CCCN2CCC(c3c[nH]c4cccc(O)c34)C2)n1 (centres unmarked) [Compound 187, 3-(1-(3-(4-methyl-2H-1,2,3-triazol-2-yl)propyl)pyrrolidin-3-yl)-1H-indol-4-ol]",Ki,5-HT2A receptor [1]; [5],< 100 nM
same,EC50,5-HT2A receptor [2]; [6],4.17 nM
same,Emax,5-HT2A receptor [2]; [7],63.7%
"Oc1cccc2[nH]cc([C@@H]3CCN(CCCn4nccn4)C3)c12 [Compound 182, (S)-3-(1-(3-(2H-1,2,3-triazol-2-yl)propyl)pyrrolidin-3-yl)-1H-indol-4-ol]",Ki,5-HT2A receptor [1]; [5],< 100 nM
same,Total number of head-twitches within 60 minutes after dosing,Mice (strain C57BL/6) [3]; dose 30 mpk,did not cause significant head-twitch behavior
same,EC50,5-HT2A receptor [2]; [6],21.1 nM
same,Emax,5-HT2A receptor [2]; [7],57.4%
"Oc1cccc2[nH]cc(C3CCN(CCCn4nccn4)C3)c12 (centres unmarked) [Compound 180, 3-(1-(3-(2H-1,2,3-triazol-2-yl)propyl)pyrrolidin-3-yl)-1H-indol-4-ol]",Ki,5-HT2A receptor [1]; [5],< 100 nM
same,Total number of head-twitches within 60 minutes after dosing,Mice (strain C57BL/6) [3]; dose 30 mpk,did not cause significant head-twitch behavior
same,Immobility time of animals during 2-6 minutes of the forced swim test,Mice (strain C57BL/6) [4],significantly reduced immobility time
same,EC50,5-HT2A receptor [2]; [6],9.95 nM
same,Emax,5-HT2A receptor [2]; [7],59.3%
"COc1cc(CC(C)N)c(OC)cc1I (centres unmarked) [DOI, reference compound]",Total number of head-twitches within 60 minutes after dosing,Mice (strain C57BL/6) [3]; dose 3 mpk,significant head-twitch behavior
COc1ccccc1CCCN1CCC(c2c[nH]c3cccc(O)c23)C1 (centres unmarked) [Compound 2],Ki,5-HT2A receptor [1]; [5],< 100 nM
same,EC50,5-HT2A receptor [2]; [6],16.9 nM
same,Emax,5-HT2A receptor [2]; [7],51.5%
"Oc1cc(F)cc2[nH]cc(C3CCN(CCCn4nccn4)C3)c12 (centres unmarked) [Compound 184, 6-fluoro-3-(1-[3-(2H-1,2,3-triazol-2-yl)propyl]pyrrolidin-3-yl)-1H-indol-4-ol]",Ki,5-HT2A receptor [1],< 100 nM
same,EC50,5-HT2A receptor [2],8.72 nM
same,Emax,5-HT2A receptor [2]; [7],52.4%
Oc1cccc2[nH]cc(C3CCN(CCCc4ncsn4)C3)c12 (centres unmarked) [Compound 56],Ki,5-HT2A receptor [1]; [5],< 100 nM
same,EC50,5-HT2A receptor [2]; [6],8.6 nM
same,Emax,5-HT2A receptor [2]; [7],67.7%
"Oc1cccc2[nH]cc(C3CCN(CCCn4ncc(C5CC5)n4)C3)c12 (centres unmarked) [Compound 188, 3-(1-(3-(4-cyclopropyl-2H-1,2,3-triazol-2-yl)propyl)pyrrolidin-3-yl)-1H-indol-4-ol]",Ki,5-HT2A receptor [1],< 100 nM
same,EC50,5-HT2A receptor [2],10.7 nM
same,Emax,5-HT2A receptor [2]; [7],48.5%
Oc1cccc2[nH]cc(C3CCN(CCc4coc5ccccc45)C3)c12 (centres unmarked) [Compound 134],Ki,5-HT2A receptor [1]; [5],< 100 nM
same,EC50,5-HT2A receptor [2]; [6],43.3 nM
same,Emax,5-HT2A receptor [2]; [7],68.8%
"c1ccc2c(C3CCN(CCCn4nccn4)C3)c[nH]c2c1 (centres unmarked) [Compound 125, 3-(1-(3-(2H-1,2,3-triazol-2-yl)propyl)pyrrolidin-3-yl)-1H-indole]",Ki,5-HT2A receptor [1]; [5],< 100 nM
same,EC50,5-HT2A receptor [2]; [6],23.1 nM
same,Emax,5-HT2A receptor [2]; [7],62.9%
"c1ccc2c(C3CCN(CCCc4ncon4)C3)c[nH]c2c1 (centres unmarked) [Compound 49, 3-(1-[3-(1,2,4-oxadiazol-3-yl)propyl]pyrrolidin-3-yl)-1H-indole]",Ki,5-HT2A receptor [1]; [5],< 100 nM
same,Total number of head-twitches within 60 minutes after dosing,Mice (strain C57BL/6) [3]; dose 30 mpk,did not cause significant head-twitch behavior
same,EC50,5-HT2A receptor [2]; [6],34 nM
same,Emax,5-HT2A receptor [2]; [7],47.6%
